{"source": "patent US20050042209A1", "about": "“MUC1 extracellular domain and cancer treatment compositions and methods derived therefrom” (priority 2000, published 2005)", "key": {"MUC1 [1]": {"test_system": "MUC1", "protocol": "Cell Culture: Human MCF-7 breast carcinoma and HeLa cervical carcinoma cella (obtained form the ATCC, Manassas, Va.) were grown in DMEM (high glucose; Mediatech, Cellgrow) supplemented with 10% heat-inactivated fetal calf serum (FCS) and 2 mM L-glutamate.\nImmunoblot analysis: Cells were lysed in ice-cold lysis buffer (20 mM Tris-HCl, pH 8.0, 150 mM NaCl, 1% Triton-X-100, 1 mM phenylsulfonyl fluoride, 1 mM DTT, 10 μgm/ml aprotinin) for 30 min. Lysates were cleared by centrifugation for 20 min. at 4° C. as described (Yin et al, 2001). Proteins were separated by SDS-PAGE, transferred to nitrocellulose and probed with anti-DF3/MUC1 (Kufe, U.S. Pat. No. 5,506,34) or anti-β-actin (Sigma). The antigen-antibody complexes were visualized by enhanced chemiluminescence (ECL; Amersham Life Sciences).\nCDDO downregulates MUC1 expression: MUC1-positive cells were treated with CDDO at concentrations of 1, 3 and 5 μM."}, "intracellular ROS": {"test_system": "intracellular ROS", "conditions": "NAC pretreatment", "protocol": "Measurement of ROS levels: Cells were incubated with 10 mM DCF-DA Sigma) for 15 min. at 37° C. to assess ROS-mediated oxidation of the fluorescent compound DCF (LeBel et al., 1992). Fluorescence of oxidized DCF was measured at an excitation wavelength of 480 nm and an emission wavelength of 525 nm using a flow cytometer (Beckton Dickerson, Lincoln Park, N.J.).\nAs a control, cells were incubated with NAC, a scavenger of ROS."}, "MUC1 DF3 antigen": {"test_system": "MUC1 DF3 antigen", "experiment": "DF3 antigen levels by immunoblot after NM-3", "type": "cell-based, human", "method": "MCF-7 cells were treated with NM-3 (2-(8-hydroxy-6-methoxy-1-oxo-1 H-2-benzopyran-3-yl)propionic acid) at 100-400 μg/ml for 48 hr. DF3 antigen levels were visualized by immunoblot analysis with DF3 MAb (Kufe, U.S. Pat. No. 5,506,343, herein incorporated by reference).\nA decrease in the intracellular levels of DF3 antigen of NM-3 treated cells relative to non-treated cells was observed. […] To determine whether NM-3 impaired the extracellular localization of the MUC1 DF3 antigen, the antigen levels in cell culture medium supernatants and on MCF-7 cells after NM-3 treatment were investigated. The levels of DF3 antigen were reduced in both localizations."}, "[2]": {"test_system": "epidermal growth factor receptor (EGF-R)", "experiment": "EGF-R expression after NM-3", "type": "cell-based, human", "conditions": "MCF-7, ZR-75-1 and BT-20 cell lines", "method": "To determine whether NM-3 inhibits the expression of cellular surface proteins as well, the level of epidermal growth factor receptor (EGF-R) expression after NM-3 treatment was tested on MCF-7, ZR-75-1 and BT-20 cell lines."}, "HeLa cells": {"test_system": "HeLa cells", "conditions": "HeLa/MUC1 vs HeLa/V, FIG. 4", "protocol": "DNA content was assessed by staining ethanol-fixed cells with propidium iodide and monitoring by FACScan (Beckton Dickerson). Numbers of cells with sub-G1 DNA content were determined with a MODFIT LT program, (Verity Software House, Topsham, Me.) (Yuan et al., 1997). The cells were analyzed for induction of sub-G1 DNA by flow cytometry as a marker of apoptosis.\nThe induction of apoptosis in cells treated with 0.01 mM taxol for 20 hr was assessed by measuring sub-G1 DNA content of HeLa cells expressing empty vector or MUC1."}, "MUC1 [3]": {"test_system": "MUC1", "experiment": "MUC1 induction by oxidative and genotoxic stress (immunoblot)", "method": "To determine whether MUC1 is induced in response to oxidative stress, MCF-7 cells were treated with hydrogen peroxide. Cell lysates were analyzed by immunoblotting with anti-DF3/MUC1 antibody. Lysates were prepared by suspending MCF-7 cells in lysis buffer (50 mM Tris, pH 7.6, 150 mM NaCl, 1 mM PMSF, 3 mM NaF, 1 mM sodium vandate, 1 mM DTT with protease inhibitors and either 1% NP-40 or 1% Brij-96) for 30 min. on ice. Lysates were cleared by centifugation and equal amounts of proteins were resolved by SDS-PAGE. Proteins were then transferred to nitrocellulose filters, blocked by incubation in 5% non-fat dry milk in PBS with 0.05% Tween-20 and probed with anti-MUC1 antibody (Pandey et al., 1995). Anti-actin was used as a control.\nSimilar studies were performed with genotoxic agents."}, "A549 cells [4]": {"test_system": "A549 cells", "experiment": "Proliferation of A549 cells", "type": "cell-based, human", "conditions": "transfection of siRNA; FIG. 8", "method": "(§1) Cell culture: Human non-small cell lung cancer A549 cells were grown in RPMI1640 medium supplemented with 10% fetal bovine serum (FBS), 100 units/ml of penicillin and 100 μg/ml of streptomycin, respectively.\nTransfection with siRNA: Cells (3×10^5 cells/well) were plated in 6-well plates in growth medium without antibiotics, and incubated overnight. Cells were then transfected with MUC1 siRNAs, siRNA #1, i.e., one against the target sequence SEQ ID NO: 63, i.e., […] with sense and antisense strands as shown in SEQ ID NO: 64 and SEQ ID NO: 65 respectively; and siRNA #2, i.e., one against the target sequence SEQ ID NO: 42, i.e., […] with sense and antisense strands as shown in SEQ ID NO: 43 and SEQ ID NO: 44 respectively, and one control siRNA directed towards the non-specific gene target […] using Oligofectamine reagent (Invitrogen) according to the manufacturer's instructions. After 24 hr of transfection, the medium was changed to complete medium containing antibiotics.\n(§2) Treatment of Cells with cisplatinum (CDDP): At 72 hr post transfection of siRNAs, 10 μM CDDP was added to the cells in fresh culture medium. After 48 hr of CDDP exposure cells were trypsinized and analyzed for MUC1 expression and apoptosis as described below."}, "MUC1 [5]": {"test_system": "MUC1", "experiment": "Western blot of MUC1 after siRNA transfection", "type": "cell-based, human", "conditions": "siRNA 0.2 micromolar", "source_text": "Cell Culture: Human MCF-7 breast cancer cells were maintained in DMEM supplemented with 10% heat inactivated fetal bovine serum (FBS) and 1% penicillin-streptomycin mixture. Human A549 non-small cell lung cancer cells were maintained in RPMI1640 medium supplemented with 10% FBS and 1% penicillin-streptomycin mixture.\n(§3) siRNAs: Five different double stranded anti-MUC1 siRNAs were designed: one against the target sequence SEQ ID NO: 63, i.e., […], with sense and antisense strands as shown in SEQ ID NO: 64 and SEQ ID NO: 65 respectively (hereinafter siRNA #1); one against the target sequence SEQ ID NO: 42, i.e., […], with sense and antisense strands as shown in SEQ ID NO: 43 and SEQ ID NO: 44 respectively (hereinafter siRNA #2); one against the target sequence SEQ ID NO: 21, i.e., […], with sense and antisense strands as shown in SEQ ID NO: 22 and SEQ ID NO: 23 respectively (hereinafter siRNA #3); one against the target sequence SEQ ID NO: 66, i.e., […], with sense and antisense strands as shown by SEQ ID NO: 67 and SEQ ID NO: 68 respectively (hereinafter siRNA #4); and one against target sequence SEQ ID NO: 69, i.e., […], with sense and antisense strands as shown by SEQ ID NO: 70 and SEQ ID NO: 71 respectively (hereinafter siRNA #5). A control siRNA was designed against the scrambled target SEQ ID NO: 72 with sense and antisense strands as shown by SEQ ID NO: 73 and SEQ ID NO: 74 respectively. Each RNA sense oligonucleotide (50 μM) was combined with equal volume of antisense oligonucleotide (50 μM) in an annealing buffer (20 mM KCl, 6 mM HEPES-KOH, pH 7.5, 0.2 mM MgCl2). The solution was incubated for 1 min at 90° C. to denature secondary structure, and placed at 37° C. for 1 hour to anneal the complementary strands. The subsequent double stranded RNAs were used as the anti-MUC1 siRNA.\nTransfection: Cells (1-3×10^5 cells/well) were plated in 6-well plates in growth medium without antibiotics, and incubated overnight. After washing cells once with Opti-MEM I (Invitrogen), 800 μL of fresh Opti-MEM I and 200 μL of the Reagent (Invitrogen) were added to the cultured cells. Four hours later, 300 μL of FBS was added to the cultured cells.\nWestern Blot Analysis: Cell were passed a day before transfection. MUC1 siRNA (0.2 micromolar) was added with oligofectamine to cells in 0% FBS. Four hours later serum was added to a final concentration of 10%. After various time intervals (48 h, 72 h and 96 h), cells were washed and total cell lysates were prepared. Proteins were separated from cell lysates by SDS-PAGE, transferred to nitrocellulose and analyzed by immunoblotting with anti-DF3 antibodies."}, "MUC1 RNA": {"test_system": "MUC1 RNA", "experiment": "RT-PCR of MUC1 RNA after siRNA transfection", "type": "cell-based, human", "conditions": "FIG. 5", "source_text": "as §3\nRT-PCR: Total RNA was extracted and purified from cultured cells using RNAzol B according the manufacturer's instructions. The RNA was quantified by determining absorbance at 260 nm. One μg of total RNA from each sample was reverse transcribed into cDNA using Thermoscript reverse transcriptase (Invitrogen) in a volume of 20 μL. The cDNA product was amplified by PCR using Platinum Taq DNA polymerase (Invitrogen) and specific primers for MUC1 and beta-actin as an internal control. The sequences of primers used were as follows; • MUC1 (forward, 5′-[…]-3′; reverse, 5′-[…]-3′) and beta-actin (forward, 5′-[…]-3′; reverse, 5′-[…]-3′).\nThe reaction was performed using the following program: 94° C. for 2 min, 29 cycles (25 cycles for beta-actin) at 94° C. for 2 min, 48° C. for 1 min, 72° C. for 30s and then additional extension step of 72° C. for 10 min. The PCR products were separated on a 2% agarose gel, stained with ethidium bromide and photographed under UV light."}, "A549 cells [6]": {"test_system": "A549 cells", "experiment": "Apoptosis assay (Annexin V-FITC/PI) in A549 cells", "type": "cell-based, human", "conditions": "FIG. 7", "method": "as §1\nTransfection with siRNA: Cells (3×10^5 cells/well) were plated in 6-well plates in growth medium without antibiotics, and incubated overnight. […]\nas §2\nApoptosis assay.: A549 cells were initially stained for MUC1 expression using the DF3 monoclonal antibody (Kufe, U.S. Pat. No. 5,506,343, herein incorporated by reference). […] The amount of DF3 staining was then measured using a biotinylated goat anti-mouse secondary antibody (diluted 1:200 in staining buffer) and streptavidin-conjugated phycoerythrin (diluted 1:50 in staining buffer). After fluorescent staining for MUC1 expression, apoptosis was determined by staining cells with Annexin V-FITC and propidium iodide (PI). […] Using a flow cytometer, (EPICS XL-MCL, Coulter Corp), the amount of MUC1 expressing cells were determined using the FL2 detector, annexin V-FITC staining was measured in the FL1 detector and propidium iodide staining was measured in the FL3 detector. […]"}}, "note": "d = 2'-deoxy (DNA); r = 2'-OH (RNA)"}
{"compound": "CC(=O)N[C@@H](CS)C(=O)O", "note": "[NAC, N-acetylcysteine]", "values": [{"measurement": "CDDO-, CDDO-Me-, CDDO-Im- and CDDO-Pr-Im-induced decreases in MUC1", "setting": "MUC1 [1]; cells treated with antioxidant", "value": "blocked"}, {"measurement": "H2O2-induced downregulation of MUC1", "setting": "MUC1 [1]; with NAC", "value": "reversed"}, {"measurement": "CDDO-induced ROS production", "setting": "intracellular ROS", "value": "abrogation"}]}
{"compound": "COc1cc(O)c2c(=O)oc(C(C)C(=O)O)cc2c1", "note": "(centres unmarked) [NM-3, 2-(8-hydroxy-6-methoxy-1-oxo-1 H-2-benzopyran-3-yl)propionic acid]", "values": [{"measurement": "levels of DF3 antigen in cell culture medium supernatants and on MCF-7 cells", "setting": "MUC1 DF3 antigen; MCF-7 cells after NM-3 treatment", "value": "reduced"}, {"measurement": "intracellular levels of DF3 antigen", "setting": "MUC1 DF3 antigen; MCF-7 cells, 100-400 μg/ml for 48 hr, relative to non-treated cells", "value": "decrease"}, {"measurement": "EGF-R expression", "setting": "[2]", "value": "no detectable changes"}]}
{"compound": "OO", "note": "[hydrogen peroxide]", "values": [{"measurement": "MUC1 expression", "setting": "MUC1 [1]; 0.1 mM H2O2", "value": "downregulation of MUC1"}, {"measurement": "apoptotic response (sub-G1 DNA), effect of MUC1", "setting": "HeLa cells; 1 mM hydrogen peroxide for 1 hr", "value": "MUC1 inhibits the apoptotic response"}, {"measurement": "MUC1 expression (immunoblot)", "setting": "MUC1 [3]; MCF-7 cells", "value": "rapidly and transiently induced"}]}
{"compound": "CC(=O)O[C@H]1C(=O)[C@@]2(C)[C@H]([C@H](OC(=O)c3ccccc3)[C@]3(O)C[C@H](OC(=O)[C@H](O)[C@@H](NC(=O)c4ccccc4)c4ccccc4)C(C)=C1C3(C)C)[C@]1(OC(C)=O)CO[C@@H]1C[C@@H]2O", "note": "[taxol]", "values": [{"measurement": "induced apoptosis (sub-G1 DNA), effect of MUC1", "setting": "HeLa cells; 0.01 mM taxol for 20 hr", "value": "inhibited by MUC1 expression"}, {"measurement": "MUC1 induction by diverse cytotoxic agents", "setting": "MUC1 [3]; available evidence, cells not given", "value": "induced"}]}
{"compound": "siRNA #1: double stranded anti-MUC1 siRNA, target SEQ ID NO: 63, sense SEQ ID NO: 64, antisense SEQ ID NO: 65 (sense GGGGGUUUUCUGGGCCUCUTT; antisense AGAGGCCCAGAAAACCCCCTT; sugars from the 5' end r19 d2, backbone not given here)", "values": [{"measurement": "proliferation of A549 cells", "setting": "A549 cells [4]", "value": "decreased the proliferation"}, {"measurement": "MUC1 expression at the protein level (immunoblot)", "setting": "MUC1 [5]; A549 cells, FIG. 5", "value": "downregulate MUC1 expression"}, {"measurement": "MUC1 expression at the protein level (immunoblot)", "setting": "MUC1 [5]; MCF-7 cells, FIG. 5, FIG. 6", "value": "downregulate MUC1 expression"}, {"measurement": "MUC1 expression at the RNA level (RT-PCR)", "setting": "MUC1 RNA; A549 cells", "value": "downregulate MUC1 expression"}, {"measurement": "MUC1 expression at the RNA level (RT-PCR)", "setting": "MUC1 RNA; MCF-7 cells", "value": "downregulate MUC1 expression"}]}
{"compound": "siRNA #2: double stranded anti-MUC1 siRNA, target SEQ ID NO: 42, sense SEQ ID NO: 43, antisense SEQ ID NO: 44 (sense GGUACCAUCAAUGUCCACGTT; antisense CGUGGACAUUGAUGGUACCTT; sugars from the 5' end r19 d2, backbone not given here)", "values": [{"measurement": "proliferation of A549 cells", "setting": "A549 cells [4]", "value": "decreased the proliferation"}, {"measurement": "MUC1 expression at the protein level (immunoblot)", "setting": "MUC1 [5]; A549 cells, FIG. 5", "value": "downregulate MUC1 expression"}, {"measurement": "MUC1 expression at the protein level (immunoblot)", "setting": "MUC1 [5]; MCF-7 cells, FIG. 5, FIG. 6", "value": "downregulate MUC1 expression"}, {"measurement": "MUC1 expression at the RNA level (RT-PCR)", "setting": "MUC1 RNA; A549 cells", "value": "downregulate MUC1 expression"}, {"measurement": "MUC1 expression at the RNA level (RT-PCR)", "setting": "MUC1 RNA; MCF-7 cells", "value": "downregulate MUC1 expression"}, {"measurement": "percentage of apoptotic cells", "setting": "A549 cells [6]; A549 cells transfected with siRNA, relative to controls", "value": "increase"}, {"measurement": "percentage of apoptotic cells, combination", "setting": "A549 cells [6]; A549 cells, siRNA 72 hr then 10 μM CDDP 48 hr", "value": "more than additively enhances"}]}
